# From patent US8642508B2, “Complex for use in stabilizing herbicidal compositions and methods for synthesizing and using” (Bayer Cropscience LP, priority 2005, dated 2014)
# What was measured:
# Type in all cases: physicochemical
# [1] = Long-term storage stability, Comparative Example 5 emulsifiable concentrate with bromoxynil mixed esters (triethylamine buffer); conditions: Comparative Example 5 formulation
# Protocol: An emulsifiable concentrate of fenoxaprop p-ethyl, mefenpyr diethyl, pyrasulfotole and bromoxynil mixed esters was prepared. Triethylamine, a buffer that is not capable of complexing was selected as the buffer. The mixture of Table 9 was prepared by mixing the liquid ingredients, then the solid ingredients at 50° C.
# (§1) The mixture was tested for long-term storage stability by subjecting separate samples to different temperatures for eight weeks.
# [2] = Long-term storage stability, Comparative Example 6 mixture with bromoxynil mixed esters (no buffer); conditions: Comparative Example 6 formulation
# Protocol: as §1
# [3] = Long-term storage stability 1 year room temperature, Example 7 emulsifiable concentrate (triethanolamine + DBSCa); conditions: Example 7 formulation; 1 year @ room temp
# Protocol: In this example, an emulsifiable concentrate of fenoxaprop p-ethyl, mefenpyr diethyl, pyrasulfotole and bromoxynil mixed esters was prepared. Triethanolamine, a buffer that is capable of hydrogen bonding, was selected as the buffer. Dodecylbenzenesulfontate calcium, also known as DBSCa was also used to provide a calcium cation for the complex. The mixture of Table 13 was prepared by mixing the liquid ingredients, then the solid ingredients at 50° C.
# The mixture was tested for long-term storage stability by subjecting separate samples to room temperatures for 1 year.
# [4] = Long-term storage stability, Comparative Example 2 mixture (no buffer); conditions: Comparative Example 2 formulation
# Protocol: A mixture of fenoxaprop p-ethyl, mefenpyr diethyl, pyrasulfotole, and fillers was prepared in similar manner as in Table 1 but without a buffer system of the invention (see Table 3).
# as §1
# [5] = Long-term storage stability, Comparative Example 3 emulsifiable concentrate (triethylamine buffer); conditions: Comparative Example 3 formulation
# Protocol: An emulsifiable concentrate of fenoxaprop p-ethyl, mefenpyr diethyl, and pyrasulfotole was prepared. Triethylamine, a buffer that is not capable of complexing or forming a coordination complex or hydrogen bonding, was selected as the buffer. The mixture of Table 5 was prepared by mixing the liquid ingredients, then the solid ingredients at 50° C.
# as §1
# [6] = Long-term storage stability, Comparative Example 1 emulsifiable concentrate (triethanolamine buffer); conditions: Comparative Example 1 formulation
# Protocol: An emulsifiable concentrate of fenoxaprop-ethyl, mefenpyr diethyl, and pyrasulfotole and fillers was prepared. Triethanolamine, a buffer capable of hydrogen bonding, was selected as the buffer. The mixture of Table 1 was prepared by mixing the liquid ingredients, then the solid ingredients at 50° C.
# as §1
# [7] = Long-term storage stability, Example 4 emulsifiable concentrate with bromoxynil mixed esters (triethanolamine buffer); conditions: Example 4 formulation
# Protocol: Triethanolamine, a buffer capable of complexing was selected as the buffer. The mixture of Table 7 was prepared by mixing the liquid ingredients, then the solid ingredients at 50° C.
# as §1
# [8] = Long-term storage stability, Example 8 mixture (triethanolamine, without DBSCa); conditions: Example 8 formulation
# Protocol: as §1
# [9] = 8 weeks @ 40° C., listed as pyrasulfotole
compound,measurement,setting,value
"Cc1nn(C)c(O)c1C(=O)c1ccc(C(F)(F)F)cc1S(C)(=O)=O [Pyrasulfotole, pyrasulfotole]",Avg. Wt % active ingredient,[1]; 8 weeks @ 0° C.,1.38 Wt %
same,Avg. Wt % active ingredient,[1]; 8 weeks @ 40° C.,1.26 Wt %
same,change from 0° C.,[1]; 8 weeks @ 40° C.,−9.04%
same,change from 0° C.,[1]; [9],−9.04%
same,Avg. Wt % active ingredient,[1]; 8 weeks @ room temp.,1.30 Wt %
same,change from 0° C.,[1]; 8 weeks @ room temp.,−5.80%
same,Avg. Wt % active ingredient,[2]; 8 weeks @ 0° C.,3.26 Wt %
same,Avg. Wt % active ingredient,[2]; 8 weeks @ 40° C.,2.81 Wt %
same,change from 0° C.,[2]; 8 weeks @ 40° C.,−13.8%
same,Avg. Wt % active ingredient,[2]; 8 weeks @ room temp.,3.01 Wt %
same,change from 0° C.,[2]; 8 weeks @ room temp.,−7.67%
same,Avg. Wt % active ingredient,[3],3.14 Wt %
same,Change from expected,[3],−3.083%
same,Avg. Wt % active ingredient,[4]; 8 weeks @ 0° C.,4.76 Wt %
same,Avg. Wt % active ingredient,[4]; 8 weeks @ 40° C.,4.69 Wt %
same,change from 0° C.,[4]; 8 weeks @ 40° C.,−1.47%
same,Avg. Wt % active ingredient,[4]; 8 weeks @ 50° C.,4.54 Wt %
same,change from 0° C.,[4]; 8 weeks @ 50° C.,−4.62%
same,Avg. Wt % active ingredient,[4]; 8 weeks @ room temp.,4.75 Wt %
same,change from 0° C.,[4]; 8 weeks @ room temp.,−0.21%
same,Avg. Wt % active ingredient,[5]; 8 weeks @ 0° C.,5.38 Wt %
same,Avg. Wt % active ingredient,[5]; 8 weeks @ 40° C.,5.43 Wt %
same,change from 0° C.,[5]; 8 weeks @ 40° C.,0.85%
same,Avg. Wt % active ingredient,[5]; 8 weeks @ 50° C.,5.60 Wt %
same,change from 0° C.,[5]; 8 weeks @ 50° C.,4.07%
same,Avg. Wt % active ingredient,[5]; 8 weeks @ room temp.,5.46 Wt %
same,change from 0° C.,[5]; 8 weeks @ room temp.,1.51%
same,Avg. Wt % active ingredient,[6]; 8 weeks @ 0° C.,5.57 Wt %
same,Avg. Wt % active ingredient,[6]; 8 weeks @ 40° C.,5.53 Wt %
same,change from 0° C.,[6]; 8 weeks @ 40° C.,−0.82%
same,Avg. Wt % active ingredient,[6]; 8 weeks @ 50° C.,5.51 Wt %
same,change from 0° C.,[6]; 8 weeks @ 50° C.,−1.12%
same,Avg. Wt % active ingredient,[6]; 8 weeks @ room temp.,5.67 Wt %
same,change from 0° C.,[6]; 8 weeks @ room temp.,1.71%
same,Avg. Wt % active ingredient,[7]; 8 weeks @ 0° C.,1.42 Wt %
same,Avg. Wt % active ingredient,[7]; 8 weeks @ 40° C.,1.40 Wt %
same,change from 0° C.,[7]; 8 weeks @ 40° C.,−1.30%
same,change from 0° C.,[7]; [9],−1.30%
same,Avg. Wt % active ingredient,[8]; 8 weeks @ 0° C.,1.74 Wt %
same,Avg. Wt % active ingredient,[8]; 8 weeks @ 40° C.,1.65 Wt %
same,change from 0° C.,[8]; 8 weeks @ 40° C.,−4.81%
"CCOC(=O)C1=NN(c2ccc(Cl)cc2Cl)C(C)(C(=O)OCC)C1 (stereo not drawn) [Mefenpyr diethyl, mefenpyr diethyl]",Avg. Wt % active ingredient,[1]; 8 weeks @ 0° C.,1.73 Wt %
same,Avg. Wt % active ingredient,[1]; 8 weeks @ 40° C.,1.75 Wt %
same,change from 0° C.,[1]; 8 weeks @ 40° C.,0.88%
same,Avg. Wt % active ingredient,[1]; 8 weeks @ room temp.,1.75 Wt %
same,change from 0° C.,[1]; 8 weeks @ room temp.,0.77%
same,Avg. Wt % active ingredient,[2]; 8 weeks @ 0° C.,2.98 Wt %
same,Avg. Wt % active ingredient,[2]; 8 weeks @ 40° C.,3.01 Wt %
same,change from 0° C.,[2]; 8 weeks @ 40° C.,1.01%
same,Avg. Wt % active ingredient,[2]; 8 weeks @ room temp.,3.00 Wt %
same,change from 0° C.,[2]; 8 weeks @ room temp.,0.67%
same,Avg. Wt % active ingredient,[4]; 8 weeks @ 0° C.,3.81 Wt %
same,Avg. Wt % active ingredient,[4]; 8 weeks @ 40° C.,3.85 Wt %
same,change from 0° C.,[4]; 8 weeks @ 40° C.,−1.05%
same,Avg. Wt % active ingredient,[4]; 8 weeks @ 50° C.,3.97 Wt %
same,change from 0° C.,[4]; 8 weeks @ 50° C.,−4.20%
same,Avg. Wt % active ingredient,[4]; 8 weeks @ room temp.,4.01 Wt %
same,change from 0° C.,[4]; 8 weeks @ room temp.,+5.24%
same,Avg. Wt % active ingredient,[5]; 8 weeks @ 0° C.,3.80 Wt %
same,Avg. Wt % active ingredient,[5]; 8 weeks @ 40° C.,3.72 Wt %
same,change from 0° C.,[5]; 8 weeks @ 40° C.,−2.10%
same,Avg. Wt % active ingredient,[5]; 8 weeks @ 50° C.,3.73 Wt %
same,change from 0° C.,[5]; 8 weeks @ 50° C.,−1.93%
same,Avg. Wt % active ingredient,[5]; 8 weeks @ room temp.,3.77 Wt %
same,change from 0° C.,[5]; 8 weeks @ room temp.,−0.87%
same,Avg. Wt % active ingredient,[6]; 8 weeks @ 0° C.,3.77 Wt %
same,Avg. Wt % active ingredient,[6]; 8 weeks @ 40° C.,3.74 Wt %
same,change from 0° C.,[6]; 8 weeks @ 40° C.,−0.65%
same,Avg. Wt % active ingredient,[6]; 8 weeks @ 50° C.,3.72 Wt %
same,change from 0° C.,[6]; 8 weeks @ 50° C.,−1.17%
same,Avg. Wt % active ingredient,[6]; 8 weeks @ room temp.,3.76 Wt %
same,change from 0° C.,[6]; 8 weeks @ room temp.,−0.17%
same,Avg. Wt % active ingredient,[7]; 8 weeks @ 0° C.,1.82 Wt %
same,Avg. Wt % active ingredient,[7]; 8 weeks @ 40° C.,1.80 Wt %
same,change from 0° C.,[7]; 8 weeks @ 40° C.,−0.92%
same,Avg. Wt % active ingredient,[8]; 8 weeks @ 0° C.,1.74 Wt %
same,Avg. Wt % active ingredient,[8]; 8 weeks @ 40° C.,1.72 Wt %
same,change from 0° C.,[8]; 8 weeks @ 40° C.,−1.29%
"CCOC(=O)[C@@H](C)Oc1ccc(Oc2nc3ccc(Cl)cc3o2)cc1 [Fenoxaprop p-ethyl, fenoxaprop p-ethyl]",Avg. Wt % active ingredient,[1]; 8 weeks @ 0° C.,4.30 Wt %
same,Avg. Wt % active ingredient,[1]; 8 weeks @ 40° C.,4.33 Wt %
same,change from 0° C.,[1]; 8 weeks @ 40° C.,0.68%
same,Avg. Wt % active ingredient,[1]; 8 weeks @ room temp.,4.33 Wt %
same,change from 0° C.,[1]; 8 weeks @ room temp.,0.07%
same,Avg. Wt % active ingredient,[2]; 8 weeks @ 0° C.,6.97 Wt %
same,Avg. Wt % active ingredient,[2]; 8 weeks @ 40° C.,2.34 Wt %
same,change from 0° C.,[2]; 8 weeks @ 40° C.,−66.43%
same,Avg. Wt % active ingredient,[2]; 8 weeks @ room temp.,6.15 Wt %
same,change from 0° C.,[2]; 8 weeks @ room temp.,−11.76%
same,Avg. Wt % active ingredient,[3],7.95 Wt %
same,Change from expected,[3],−0.625%
same,Avg. Wt % active ingredient,[4]; 8 weeks @ 0° C.,8.20 Wt %
same,Avg. Wt % active ingredient,[4]; 8 weeks @ 40° C.,2.64 Wt %
same,change from 0° C.,[4]; 8 weeks @ 40° C.,−67.80%
same,Avg. Wt % active ingredient,[4]; 8 weeks @ 50° C.,0.91 Wt %
same,change from 0° C.,[4]; 8 weeks @ 50° C.,−88.90%
same,Avg. Wt % active ingredient,[4]; 8 weeks @ room temp.,6.49 Wt %
same,change from 0° C.,[4]; 8 weeks @ room temp.,−20.85%
same,Avg. Wt % active ingredient,[5]; 8 weeks @ 0° C.,2.93 Wt %
same,Avg. Wt % active ingredient,[5]; 8 weeks @ 40° C.,2.80 Wt %
same,change from 0° C.,[5]; 8 weeks @ 40° C.,−4.37%
same,Avg. Wt % active ingredient,[5]; 8 weeks @ 50° C.,2.74 Wt %
same,change from 0° C.,[5]; 8 weeks @ 50° C.,−6.39%
same,Avg. Wt % active ingredient,[5]; 8 weeks @ room temp.,2.89 Wt %
same,change from 0° C.,[5]; 8 weeks @ room temp.,−1.19%
same,Avg. Wt % active ingredient,[6]; 8 weeks @ 0° C.,9.41 Wt %
same,Avg. Wt % active ingredient,[6]; 8 weeks @ 40° C.,9.00 Wt %
same,change from 0° C.,[6]; 8 weeks @ 40° C.,−4.31%
same,Avg. Wt % active ingredient,[6]; 8 weeks @ 50° C.,8.58 Wt %
same,change from 0° C.,[6]; 8 weeks @ 50° C.,−8.83%
same,Avg. Wt % active ingredient,[6]; 8 weeks @ room temp.,9.34 Wt %
same,change from 0° C.,[6]; 8 weeks @ room temp.,−0.69%
same,Avg. Wt % active ingredient,[7]; 8 weeks @ 0° C.,4.32 Wt %
same,Avg. Wt % active ingredient,[7]; 8 weeks @ 40° C.,3.96 Wt %
same,change from 0° C.,[7]; 8 weeks @ 40° C.,−8.25%
same,Avg. Wt % active ingredient,[8]; 8 weeks @ 0° C.,4.33 Wt %
same,Avg. Wt % active ingredient,[8]; 8 weeks @ 40° C.,4.00 Wt %
same,change from 0° C.,[8]; 8 weeks @ 40° C.,−5.75%
"CCCCCCC(=O)Oc1c(Br)cc(C#N)cc1Br [Bromoxynil Heptanoate Esters, bromoxynil heptanoate]",Avg. Wt % active ingredient,[3],12.47 Wt %
same,Change from expected,[3],−3.03%
"CCCCCCCC(=O)Oc1c(Br)cc(C#N)cc1Br [Bromoxynil Octanoate, bromoxynil octanoate]",Avg. Wt % active ingredient,[1]; 8 weeks @ 0° C.,5.67 Wt %
same,Avg. Wt % active ingredient,[1]; 8 weeks @ 40° C.,5.02 Wt %
same,change from 0° C.,[1]; 8 weeks @ 40° C.,−11.52%
same,Avg. Wt % active ingredient,[1]; 8 weeks @ room temp.,5.65 Wt %
same,change from 0° C.,[1]; 8 weeks @ room temp.,−0.41%
same,Avg. Wt % active ingredient,[3],13.08 Wt %
same,Change from expected,[3],−3.083%
